Source: a compilation of properties of binary mixtures (doi:10.1016/j.molliq.2020.112489)

Assay: xn = mol fraction of the nth substance listed
Conditions: 101 kPa

Cn1cc[n+](CCO)c1.O=S(=O)([O-])C(F)(F)C(F)(F)C(F)(F)C(F)(F)F + O
Conditions	electrical conductivity, 298.15 K [S/m]	viscosity, 298.15 K [mPa·s]	viscosity, 308.15 K [mPa·s]	viscosity, 318.15 K [mPa·s]
x1 = 0.0178	4.26	2.036	1.632	1.344
x1 = 0.0195	4.4	2.133	1.689	1.381
x1 = 0.0212	4.52	2.326	1.847	1.517
x1 = 0.0232	–	–	1.972	–
x1 = 0.0253	4.75	2.66	2.104	1.719
x1 = 0.0274	–	–	2.2	1.77
x1 = 0.0297	4.91	3.09	2.42	1.975
x1 = 0.0321	4.97	3.3	2.6	–
x1 = 0.0348	5	3.56	2.78	2.227
x1 = 0.0376	5.1	3.7	2.87	2.274
x1 = 0.0405	5.1	4.19	3.25	2.58
x1 = 0.0438	5.2	4.43	–	–
x1 = 0.0474	5.2	4.87	3.73	2.95
x1 = 0.0511	–	–	4.07	3.2
x1 = 0.0551	5.2	5.75	4.36	3.42
x1 = 0.0596	–	–	4.76	–
x1 = 0.0644	5.1	6.82	–	3.98
x1 = 0.07	5.1	7.66	–	4.42
x1 = 0.0756	5	8.21	–	4.67
x1 = 0.0824	4.88	9.23	6.8	5.16
x1 = 0.0899	4.73	10.36	–	5.75
x1 = 0.0983	–	–	8.34	–
x1 = 0.1075	4.31	12.91	9.29	6.93
x1 = 0.1178	4.05	14.88	10.63	7.86
x1 = 0.1302	3.73	16.91	–	–
x1 = 0.1441	3.39	19.81	–	10.06
x1 = 0.1621	2.98	23.25	16.05	11.56
x1 = 0.1816	–	–	18.72	13.38
x1 = 0.2068	2.13	32.1	–	15.23
x1 = 0.2329	1.74	38.8	25.7	–
x1 = 0.2751	1.26	50.6	32.8	22.44
x1 = 0.3277	0.85	63.8	40.6	27.4
x1 = 0.3954	0.52	87.1	–	35.4
x1 = 0.5075	0.241	133.7	79.6	50.5
x1 = 0.6777	–	–	143.5	86.8
x1 = 1	0.033	832	411	224

CC[n+]1ccn(C)c1.O=C([O-])C(F)(F)C(F)(F)C(F)(F)C(F)(F)F + O
viscosity [mPa·s]
Conditions	298.15 K	308.15 K	318.15 K
x1 = 0.0222	–	2.016	–
x1 = 0.0264	2.88	2.221	1.773
x1 = 0.0311	3.36	–	2.036
x1 = 0.0364	3.86	2.91	2.271
x1 = 0.0428	4.62	–	2.64
x1 = 0.0496	5.3	3.92	3.01
x1 = 0.0581	5.96	4.37	3.35
x1 = 0.067	6.84	4.93	3.7
x1 = 0.0727	7.23	5.22	3.93
x1 = 0.0857	8.38	–	4.5
x1 = 0.1009	–	7.34	5.4
x1 = 0.133	12.96	9.04	6.58
x1 = 0.1458	13.63	–	–
x1 = 0.1625	14.99	10.35	–
x1 = 0.1788	16.31	11.24	8.1
x1 = 0.201	17.94	–	8.85
x1 = 0.2367	–	14.29	10.22
x1 = 0.262	22.43	–	10.88
x1 = 0.3007	25.2	–	12.16
x1 = 0.4265	–	24.3	17.06
x1 = 0.7012	73.6	46.9	31.8
x1 = 1	107.5	65.9	43.1
